The target of experiment [1] is T1, casein kinase 1 epsilon (CK1 epsilon) (Homo sapiens, UniProt P49674).
T1 construct: Invitrogen Corporation (alternative)
Description: Filter-plate assay of ATP-33P, inhibition of phosphorylation of casein by CK1 epsilon. Type of experiment: biochemical. Conditions: ATP-33P filtration, cold ATP 10 μM final, 2 hours at ambient temperature, read-out: CK1 epsilon Cl50. As to the method:
The capacity of the compounds of the invention to inhibit the phosphorylation of casein by casein kinase 1 epsilon and delta may be evaluated according to the procedure described in US 2005/0131012.
Filter-Plate Assay of ATP-^33P for the Screening of CK1 Epsilon Inhibitors:
The effect of the compounds on inhibition of the phosphorylation of casein by the enzyme casein kinase 1 epsilon (CK1 epsilon) is measured, using a casein assay with filtration of ATP-^33P in vitro.
Casein kinase 1 epsilon (0.58 mg/ml) is obtained via fermentation and purification processes performed according to methods that are well known to those skilled in the art, or may also be obtained from Invitrogen Corporation™ (human CK1 epsilon).
The compounds are tested at five different concentrations so as to generate IC50 values, i.e. the concentration at which a compound is capable of inhibiting the enzymatic activity by 50%, or alternatively the percentage of inhibition at a concentration of 10 micromolar.
“U”-bottomed Falcon plates are prepared by placing 5 μl of solutions of the compounds according to the invention at concentrations of 10, 1, 0.1, 0.01 or 0.001 μM in different wells. The solutions of the compounds according to the invention at these various concentrations are prepared by diluting in a test buffer (50 mM Tris, pH 7.5, […], 2 mM DTT and 1 mM EGTA) a stock solution in DMSO at a concentration of 10 mM. Next, 5 μl of dephosphorylated casein are added to a final concentration of 0.2 μg/μl, 20 μl of CK1 epsilon to a final concentration of 3 ng/μl, and 20 μl of ATP-^33P to a final concentration of 0.02 μCi/μl mixed with cold ATP (10 μM final—approximately 2×10^6 CPM per well). The final total test volume per well is equal to 50 μl.
The “U”-bottomed Falcon® test plate mentioned above is vortexed, and then incubated at ambient temperature for 2 hours. After 2 hours, the reaction is stopped by adding an ice-cold solution of 65 μl of ATP (2 mM) prepared in test buffer.
100 μl of the reaction mixture are then transferred from the “U”-bottomed Falcon® plate into Millipore® MAPH filter plates, preimpregnated with 25 μl of ice-cold 100% TCA. […]
The plates are left to dry overnight at ambient temperature. […] The radiation emitted by each well is then measured for 2 minutes in a Packard® Topcount NXT scintillation counter, in which the values of CPM/well are measured.
The percentage inhibition of the capacity of the enzyme to phosphorylate the substrate (casein) is determined for each concentration of compound tested. These inhibition data expressed as percentages are used to calculate the IC50 value for each compound compared with the controls.
The kinetic studies determined the KM value for ATP as being 21 μM in this test system.

The next experiment has as its target T2, human CK1 delta (Homo sapiens, UniProt P48730).
T2 construct: purchased Invitrogen Corporation PV3665
Description: FRET Z'Lyte kinase assay, CK1 delta. Conditions: peptide substrate SER/THR 11 2 μM, ATP 4 times the KM, read-out: CK1 delta Cl50. Type of experiment: biochemical. From the text:
The capacity of the compounds of the invention to inhibit the phosphorylation of casein by casein kinase 1 epsilon and delta may be evaluated using a FRET (Fluorescence Resonance Energy Transfer) fluorescence test with the aid of the Z'Lyte™ kinase assay Kit (reference PV3670; Invitrogen Corporation™) according to the manufacturer's instructions.
The casein kinases 1 used are obtained from Invitrogen Corporation (human CK1 epsilon PV3500 and human CK1 delta PV3665).
A peptide substrate, labelled at both ends with a fluorophore donor group (coumarin) and a fluorophore acceptor group (fluorescein), constituting a FRET system is phosphorylated in the presence of ATP by casein kinase 1 epsilon or delta in the presence of increasing concentrations of compounds of the invention.
The mixture is treated with a site-specific protease that specifically cleaves the peptide substrate to form two fluorescent fragments having a large fluorescence emission ratio.
The fluorescence observed is thus related to the capacity of the products of the invention to inhibit the phosphorylation of the peptide substrate by casein kinase 1 epsilon or casein kinase 1 delta. […]
The emitted fluorescence is measured at wavelengths of 445 and 520 nm (excitation at 400 nm).

SMILES strings stand for the structures. A value given as a limit tells only on which side of the number the result lay.

One compound from patent US20110312934A1, “2-ALKYL-6-CYCLOAMINO-3-(PYRIDIN-4-YL)IMIDAZO[1,2-B]-PYRIDAZINE DERIVATIVES, PREPARATION THEREOF, AND THERAPEUTIC APPLICATION THEREOF” (SANOFI-AVENTIS, priority 2008, published 2011) can be followed below.

T1 sequence (P49674 whole entry): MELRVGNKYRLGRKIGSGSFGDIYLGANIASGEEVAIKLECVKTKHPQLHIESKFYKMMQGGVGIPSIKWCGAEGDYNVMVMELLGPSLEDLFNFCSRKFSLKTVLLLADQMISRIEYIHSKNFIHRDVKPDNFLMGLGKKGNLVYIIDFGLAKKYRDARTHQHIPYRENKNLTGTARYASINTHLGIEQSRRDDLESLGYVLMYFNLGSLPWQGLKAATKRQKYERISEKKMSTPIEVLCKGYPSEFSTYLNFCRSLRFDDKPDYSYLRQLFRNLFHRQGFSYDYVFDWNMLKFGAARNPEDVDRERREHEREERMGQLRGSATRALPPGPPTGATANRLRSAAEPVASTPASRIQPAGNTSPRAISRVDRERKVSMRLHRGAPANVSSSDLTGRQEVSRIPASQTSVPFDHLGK
T2 sequence (P48730 whole entry): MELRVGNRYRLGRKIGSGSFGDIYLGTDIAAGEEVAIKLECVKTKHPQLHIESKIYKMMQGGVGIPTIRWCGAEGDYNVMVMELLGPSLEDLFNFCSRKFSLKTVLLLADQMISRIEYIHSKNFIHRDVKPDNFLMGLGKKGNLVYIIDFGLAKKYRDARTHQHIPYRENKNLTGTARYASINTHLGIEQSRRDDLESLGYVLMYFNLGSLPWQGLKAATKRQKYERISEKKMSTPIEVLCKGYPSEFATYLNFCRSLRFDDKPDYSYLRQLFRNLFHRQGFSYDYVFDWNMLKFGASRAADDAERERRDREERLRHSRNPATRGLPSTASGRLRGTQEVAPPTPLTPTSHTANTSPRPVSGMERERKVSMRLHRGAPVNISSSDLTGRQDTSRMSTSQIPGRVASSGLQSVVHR

As to `Cc1nc2ccc(N3CCNCC3)nn2c1-c1ccncc1` [Compound 1, 2-Methyl-6-piperazin-1-yl-3-pyridin-4-yl-imidazo[1,2-b]pyridazine], the IC50 is 57 nM in experiment [1] and less than 1 nM at human CK1 delta.
